In ChEMBL document CHEMBL6103591, “Discovery of naphthoquinone-furo-piperidone derivatives as dual targeting agents of STAT3 and NQO1 for the treatment of breast cancer” (Eur J Med Chem, 2025):
The source made the active and inactive calls. The rule behind the calls is not given here.

Tests used:
[1] = target: T1, Signal transducer and activator of transcription 3 (Homo sapiens, UniProt P40763); assay: Inhibition of STAT3 activation in human MDA-MB-231 cells assessed as reduction in STAT3 phosphorylation at Tyr705 residue at 1 uM measured after 24 hrs by Western blot analysis relative to control; type: cell-based
MDA-MB-231 [2] = assay: Antiproliferative activity against human MDA-MB-231 cells transfected with shSTAT3 RNA at 1.5 uM incubated for 24 hrs by MTT assay; type: functional, cell-based
MDA-MB-468 [3] = assay: Antiproliferative activity against human MDA-MB-468 cells transfected with shSTAT3 RNA at 1.5 uM incubated for 24 hrs by MTT assay; type: functional, cell-based
[4] = target: T1, Signal transducer and activator of transcription 3; assay: Inhibition of STAT3 in human MDA-MB-231 cells assessed as downregulation of c-Myc expression measured after 24 hrs by Western blot analysis; type: cell-based; conditions: dose 0.6-2.5 µM
[5] = target: T1, Signal transducer and activator of transcription 3; assay: Inhibition of STAT3 in human MDA-MB-231 cells assessed as downregulation of Cyclin-D1 expression measured after 24 hrs by Western blot analysis; type: cell-based; conditions: dose 0.6-2.5 µM
[6] = target: T1, Signal transducer and activator of transcription 3; assay: Inhibition of STAT3 in human MDA-MB-231 cells assessed as downregulation of survivin expression measured after 24 hrs by Western blot analysis; type: cell-based; conditions: dose 0.6-2.5 µM
MDA-MB-231 [7] = assay: Effect on STAT1 expression level in human MDA-MB-231 cells at 0.6 to 2.5 uM incubated for 24 hrs by Western blot analysis; type: functional, cell-based; conditions: dose 0.6-2.5 µM
MDA-MB-231 [8] = assay: Effect on STAT5 expression level in human MDA-MB-231 cells at 0.6 to 2.5 uM incubated for 24 hrs by Western blot analysis; type: functional, cell-based; conditions: dose 0.6-2.5 µM
[9] = target: T2, Signal transducer and activator of transcription 1-alpha/beta (Homo sapiens) (UniProt P42224); assay: Inhibition of STAT1 phosphorylation at Tyr701 residue in human MDA-MB-231 cells at 0.6 to 2.5 uM incubated for 24 hrs by Western blot analysis; type: cell-based; conditions: dose 0.6-2.5 µM
T2 sequence (whole entry): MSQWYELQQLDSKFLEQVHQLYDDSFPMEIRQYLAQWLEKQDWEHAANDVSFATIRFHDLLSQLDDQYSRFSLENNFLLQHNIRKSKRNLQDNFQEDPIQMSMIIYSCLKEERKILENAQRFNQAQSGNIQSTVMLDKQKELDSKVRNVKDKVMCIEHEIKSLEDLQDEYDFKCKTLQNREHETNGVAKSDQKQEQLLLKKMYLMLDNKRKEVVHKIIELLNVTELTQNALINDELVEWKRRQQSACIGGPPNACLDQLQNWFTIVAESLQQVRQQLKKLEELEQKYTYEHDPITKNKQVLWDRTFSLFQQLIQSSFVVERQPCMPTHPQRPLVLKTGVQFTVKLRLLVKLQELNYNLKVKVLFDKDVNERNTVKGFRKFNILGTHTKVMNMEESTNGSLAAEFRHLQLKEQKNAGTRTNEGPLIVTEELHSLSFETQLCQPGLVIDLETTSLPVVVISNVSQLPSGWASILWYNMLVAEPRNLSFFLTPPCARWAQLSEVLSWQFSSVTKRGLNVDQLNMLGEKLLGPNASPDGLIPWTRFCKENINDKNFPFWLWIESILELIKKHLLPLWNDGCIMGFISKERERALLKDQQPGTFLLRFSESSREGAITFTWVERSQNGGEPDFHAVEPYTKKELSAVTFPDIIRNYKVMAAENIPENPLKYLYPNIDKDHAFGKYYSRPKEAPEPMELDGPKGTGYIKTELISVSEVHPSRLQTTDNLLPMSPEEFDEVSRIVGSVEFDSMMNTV

MDA-MB-231 [10] = assay: Inhibition of STAT5 phosphorylation at Tyr694 residue in human MDA-MB-231 cells at 0.6 to 2.5 uM incubated for 24 hrs by Western blot analysis; type: cell-based; conditions: dose 0.6-2.5 µM
[11] = target: T1, Signal transducer and activator of transcription 3; assay: Inhibition of phosphorylated STAT3 nuclear translocation in human MDA-MB-231 cells incubated for 6 hrs by immunofluorescence assay; type: cell-based; conditions: dose 1.5-3 µM
[12] = target: T1, Signal transducer and activator of transcription 3; assay: Inhibition of phosphorylated STAT3 nuclear translocation in human MDA-MB-468 cells incubated for 6 hrs by immunofluorescence assay; type: cell-based; conditions: dose 1.5-3 µM
MDA-MB-231 [13] = assay: Inhibition of colony formation in human MDA-MB-231 cells at 3 uM incubated for 10 to 15 days by crystal violet staining based microscopic analysis; type: functional, cell-based; conditions: time 10-15 day
MDA-MB-468 [14] = assay: Inhibition of colony formation in human MDA-MB-468 cells at 3 uM incubated for 10 to 15 days by crystal violet staining based microscopic analysis; type: functional, cell-based; conditions: time 10-15 day
MDA-MB-231 [15] = assay: Antimetastatic activity against human MDA-MB-231 cells assessed as reduction in cell invasion incubated for 24 hrs by crystal violet staining based transwell invasion assay; type: functional; conditions: dose 0.1875-3 µM
MDA-MB-231 [16] = assay: Antimetastatic activity against human MDA-MB-231 cells assessed as reduction in cell migration incubated for 24 hrs by crystal violet staining based transwell assay; type: functional; conditions: dose 0.1875-3 µM
MDA-MB-231 [17] = assay: Induction of apoptosis in human MDA-MB-231 cells assessed as increase in cleaved PARP level at 1.5 to 3 uM by Western blotting analysis; type: functional, cell-based; conditions: dose 1.5-3 µM
MDA-MB-231 [18] = assay: Induction of apoptosis in human MDA-MB-231 cells assessed as increase in cleaved-caspase 3 level at 1.5 to 3 uM by Western blotting analysis; type: functional, cell-based; conditions: dose 1.5-3 µM
MDA-MB-231 [19] = assay: Induction of apoptosis in human MDA-MB-231 cells assessed as increase in Bax level at 1.5 to 3 uM by Western blotting analysis; type: functional, cell-based; conditions: dose 1.5-3 µM
MDA-MB-468 [20] = assay: Induction of apoptosis in human MDA-MB-468 cells assessed as increase in cleaved PARP level at 1.5 to 3 uM by Western blotting analysis; type: functional, cell-based; conditions: dose 1.5-3 µM, time 24.0 hrs
MDA-MB-468 [21] = assay: Induction of apoptosis in human MDA-MB-468 cells assessed as increase in cleaved-caspase 3 level at 1.5 to 3 uM by Western blotting analysis; type: functional, cell-based; conditions: dose 1.5-3 µM
MDA-MB-468 [22] = assay: Induction of apoptosis in human MDA-MB-468 cells assessed as increase in Bax level at 1.5 to 3 uM by Western blotting analysis; type: functional, cell-based; conditions: dose 1.5-3 µM
MCF7 [23] = assay: Induction of ROS generation in NQO1-rich human MCF7 cells assessed as increase in intracellular ROS level by DCFH-DA staining based confocal microscopic analysis; type: functional, cell-based; conditions: dose 1.25-2.5 µM
MCF7 [24] = assay: Induction of ROS generation in NQO1-rich human MCF7 cells assessed as increase in intracellular ROS level at 1.25 uM in presence of DIC by DCFH-DA staining based confocal microscopic analysis; type: functional, cell-based
MCF7 [25] = assay: Induction of DNA damage in human MCF7 cells at 1.25 uM incubated for 24 hrs by fluorescence microscopy based alkaline comet assay; type: functional, cell-based
MDA-MB-231 [26] = assay: Antitumor activity against human MDA-MB-231 cells xenografted in female BALB/c nude mouse assessed as reduction in tumor volume at 10 mg/kg, ip administered daily and measured every 2 days for 21 days; type: functional, organism-based; conditions: time 21.0 day
MDA-MB-231 [27] = assay: Antitumor activity against human MDA-MB-231 cells xenografted in female BALB/c nude mouse assessed as reduction in tumor weight at 10 mg/kg, ip administered daily and measured every 2 days for 21 days; type: functional, organism-based; conditions: time 21.0 day
MDA-MB-231 [28] = assay: Antitumor activity against human MDA-MB-231 cells xenografted in female BALB/c nude mouse assessed as increase in TUNEL-positive cells in tumor tissue at 10 mg/kg, ip administered daily and measured every 2 days for 21 days by immunofluorescence analysis; type: functional, organism-based; conditions: time 21.0 day
Mus musculus = assay: In vivo inhibition of STAT3 in female BALB/c nude mouse xenografted with human MDA-MB-231 cells assessed as decrease in p-STAT3 level in tumor tissue at 10 mg/kg, ip administered daily and measured every 2 days for 21 days by IHC staining analysis; type: functional, organism-based; conditions: time 21.0 day
MCF7 [29] = assay: Induction of DNA damage in human MCF7 cells at 1.25 uM incubated for 24 hrs in presence of DIC by fluorescence microscopy based alkaline comet assay; type: functional, cell-based

T1 sequence (P40763 whole entry): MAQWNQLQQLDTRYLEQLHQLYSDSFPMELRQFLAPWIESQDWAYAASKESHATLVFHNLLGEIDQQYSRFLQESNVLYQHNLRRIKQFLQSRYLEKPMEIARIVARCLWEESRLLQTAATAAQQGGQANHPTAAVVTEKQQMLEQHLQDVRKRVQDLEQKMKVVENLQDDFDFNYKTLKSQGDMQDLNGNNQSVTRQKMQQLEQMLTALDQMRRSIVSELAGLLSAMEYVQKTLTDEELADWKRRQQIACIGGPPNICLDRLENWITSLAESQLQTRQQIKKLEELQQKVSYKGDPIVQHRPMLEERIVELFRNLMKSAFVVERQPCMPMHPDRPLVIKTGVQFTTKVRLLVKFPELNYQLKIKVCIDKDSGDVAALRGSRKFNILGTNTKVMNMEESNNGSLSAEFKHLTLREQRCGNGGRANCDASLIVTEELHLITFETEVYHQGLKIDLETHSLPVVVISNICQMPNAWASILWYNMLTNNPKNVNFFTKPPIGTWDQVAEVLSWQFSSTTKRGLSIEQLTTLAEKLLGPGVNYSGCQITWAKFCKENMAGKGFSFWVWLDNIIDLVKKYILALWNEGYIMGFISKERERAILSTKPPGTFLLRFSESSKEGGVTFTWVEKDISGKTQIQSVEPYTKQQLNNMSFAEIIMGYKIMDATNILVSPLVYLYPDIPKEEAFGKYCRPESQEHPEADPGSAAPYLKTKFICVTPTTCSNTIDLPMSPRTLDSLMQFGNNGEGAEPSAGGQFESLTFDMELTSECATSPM

inhibition [1]: Active
inhibition [4]: Dose-dependent-effect
inhibition [5]: Dose-dependent-effect
inhibition [9]: inactive
inhibition [11]: Dose-dependent-effect
inhibition [12]: Dose-dependent-effect
Compound: O=C1C(=O)c2c(oc3c2CCN(CCN2CCCCC2)C3=O)-c2ccccc21
Activity (MDA-MB-231 [2]): Active; Less Sensitivity Observed
Activity (MDA-MB-468 [3]): Active; Less Sensitivity Observed
inhibition [6]: Dose-dependent-effect
Activity (MDA-MB-231 [7]): inactive
Activity (MDA-MB-231 [8]): inactive
inhibition (MDA-MB-231 [10]): inactive
inhibition (MDA-MB-231 [13]): Active
inhibition (MDA-MB-468 [14]): Active
Activity (MDA-MB-231 [15]): Dose-dependent-effect
Activity (MDA-MB-231 [16]): Dose-dependent-effect
Activity (MDA-MB-231 [17]): Active
Activity (MDA-MB-231 [18]): Active
Activity (MDA-MB-231 [19]): Active
Activity (MDA-MB-468 [20]): Active
Activity (MDA-MB-468 [21]): Active
Activity (MDA-MB-468 [22]): Active
Activity (MCF7 [23]): Dose-dependent-effect
Activity (MCF7 [24]): inactive
Activity (MCF7 [25]): Active
Activity (MDA-MB-231 [26]): Active
Activity (MDA-MB-231 [27]): Active
Activity (MDA-MB-231 [28]): Active
inhibition (Mus musculus): Active
Activity (MCF7 [29]): inactive
